Data on 65 molecules can be found in USRE50050E1, “Pyrimidinedione compounds” (MyoKardia, Inc., priority 2013, dated 2024).

T1 sequence (Q9BE39 whole entry): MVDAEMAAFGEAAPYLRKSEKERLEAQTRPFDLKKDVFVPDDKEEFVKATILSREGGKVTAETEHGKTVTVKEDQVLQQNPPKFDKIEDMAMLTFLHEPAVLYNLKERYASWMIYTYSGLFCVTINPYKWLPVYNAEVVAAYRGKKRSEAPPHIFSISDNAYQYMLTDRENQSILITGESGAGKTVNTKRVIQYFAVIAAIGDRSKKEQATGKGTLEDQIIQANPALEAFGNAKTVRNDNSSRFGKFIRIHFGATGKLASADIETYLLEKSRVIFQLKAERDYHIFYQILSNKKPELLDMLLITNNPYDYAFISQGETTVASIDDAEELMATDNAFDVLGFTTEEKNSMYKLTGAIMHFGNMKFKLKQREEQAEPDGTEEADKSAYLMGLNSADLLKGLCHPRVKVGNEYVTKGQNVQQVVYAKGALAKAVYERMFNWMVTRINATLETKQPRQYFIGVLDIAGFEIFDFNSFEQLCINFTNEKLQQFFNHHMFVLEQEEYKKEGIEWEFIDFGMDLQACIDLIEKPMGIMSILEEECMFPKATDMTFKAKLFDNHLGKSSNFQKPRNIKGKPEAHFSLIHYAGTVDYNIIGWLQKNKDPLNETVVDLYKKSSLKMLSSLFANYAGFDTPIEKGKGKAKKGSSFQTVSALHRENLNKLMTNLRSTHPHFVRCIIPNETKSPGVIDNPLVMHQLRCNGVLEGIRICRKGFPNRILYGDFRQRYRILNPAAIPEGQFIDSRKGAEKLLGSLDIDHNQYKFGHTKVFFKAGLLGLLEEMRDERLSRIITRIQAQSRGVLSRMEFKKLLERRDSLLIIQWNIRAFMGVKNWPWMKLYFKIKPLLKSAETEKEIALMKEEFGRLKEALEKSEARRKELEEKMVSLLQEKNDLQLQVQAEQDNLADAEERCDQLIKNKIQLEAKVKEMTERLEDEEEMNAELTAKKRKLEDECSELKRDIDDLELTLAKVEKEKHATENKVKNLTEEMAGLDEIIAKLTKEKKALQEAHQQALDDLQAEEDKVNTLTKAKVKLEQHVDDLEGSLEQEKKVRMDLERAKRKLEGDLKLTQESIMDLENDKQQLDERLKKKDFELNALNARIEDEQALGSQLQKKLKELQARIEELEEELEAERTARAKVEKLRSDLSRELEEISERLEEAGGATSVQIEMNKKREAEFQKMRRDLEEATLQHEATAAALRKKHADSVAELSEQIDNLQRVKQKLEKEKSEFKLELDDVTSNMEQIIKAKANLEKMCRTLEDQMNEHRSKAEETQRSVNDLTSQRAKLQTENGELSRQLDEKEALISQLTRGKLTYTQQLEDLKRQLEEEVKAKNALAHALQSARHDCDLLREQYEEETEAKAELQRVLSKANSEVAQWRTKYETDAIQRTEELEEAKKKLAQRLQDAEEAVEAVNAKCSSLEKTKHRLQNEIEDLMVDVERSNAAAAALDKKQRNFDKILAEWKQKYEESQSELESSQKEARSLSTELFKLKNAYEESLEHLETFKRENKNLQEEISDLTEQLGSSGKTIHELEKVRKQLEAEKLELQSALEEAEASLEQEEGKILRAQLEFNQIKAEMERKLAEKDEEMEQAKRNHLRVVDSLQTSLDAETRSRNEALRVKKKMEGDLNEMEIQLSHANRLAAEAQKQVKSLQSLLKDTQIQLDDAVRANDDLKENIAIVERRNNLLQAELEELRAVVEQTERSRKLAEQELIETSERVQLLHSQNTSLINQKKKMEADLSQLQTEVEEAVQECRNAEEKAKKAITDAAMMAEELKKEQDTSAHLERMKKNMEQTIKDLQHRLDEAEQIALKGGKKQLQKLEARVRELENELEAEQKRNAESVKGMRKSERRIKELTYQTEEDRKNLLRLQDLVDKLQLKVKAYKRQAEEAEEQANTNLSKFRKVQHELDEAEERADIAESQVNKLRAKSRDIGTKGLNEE
T1 sequence (P85100 whole entry partner): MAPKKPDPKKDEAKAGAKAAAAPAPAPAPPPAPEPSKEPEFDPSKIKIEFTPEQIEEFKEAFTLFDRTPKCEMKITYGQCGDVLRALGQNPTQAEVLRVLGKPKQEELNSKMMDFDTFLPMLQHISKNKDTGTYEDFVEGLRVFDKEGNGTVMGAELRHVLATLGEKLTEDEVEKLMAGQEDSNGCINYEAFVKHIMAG
T1 sequence (Q3SZE5 whole entry partner): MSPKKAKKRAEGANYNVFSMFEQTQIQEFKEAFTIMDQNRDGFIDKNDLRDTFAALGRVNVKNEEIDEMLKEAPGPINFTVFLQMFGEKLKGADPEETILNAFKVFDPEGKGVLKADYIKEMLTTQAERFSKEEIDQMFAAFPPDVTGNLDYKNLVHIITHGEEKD

One assay concerns the target T1, bovine cardiac myosin (Bos taurus, UniProt Q9BE39).
T1 construct: The source of cardiac myosin was from bovine heart in the form of skinned myofibrils; from tissue; host or cells: bovine heart, skinned myofibrils
In words: Myosin inhibition assay (PK/LDH-coupled ATPase, bovine cardiac myofibrils). The format is biochemical. The conditions noted are these: bovine cardiac myofibrils, calcium giving 50% activation (pCa50); read-out: Biochemical Activity (pCa50).
Procedure: Small molecule agents were assessed for their ability to inhibit the enzymatic activity of bovine cardiac myosin using a biochemical assay that couples the release of ADP (adenosine diphosphate) from cardiac myosin to an enzymatic coupling system consisting of pyruvate kinase and lactate dehydrogenase (PK/LDH) and monitoring the absorbance decrease of NADH (at 340 nm) as a function of time. PK converts ADP to ATP (adenosine triphosphate) by converting PEP (phosphoenolpyruvate) to pyruvate. Pyruvate is then converted to lactate by LDH by converting NADH (nicotinamide adenine dinucleotide) to NAD (oxidized nicotinamide adenine dinucleotide). The source of cardiac myosin was from bovine heart in the form of skinned myofibrils. Prior to testing small molecule agents, the bovine myofibrils were assessed for their calcium responsiveness and the calcium concentration that achieves either a 50% (pCa50) or 75% (pCa75) activation of the myofibril system was chosen as the final condition for assessing the inhibitory activity of the small molecule agents. All enzymatic activity was measured in a buffered solution containing 12 mM PIPES (piperazine-N,N′-bis(2-ethanesulfonic acid), 2 mM magnesium chloride at pH 6.8 (PM 12 buffer). Final assay conditions were 1 mg/mL of bovine cardiac myofibrils, 0.4 mM PK/LDH, 50 uM ATP, 0.1 mg/mL BSA (bovine serum albumin), 10 ppm antifoam, 1 mM DTT, 0.5 mM NADH, 1.5 mM PEP at the desired free calcium concentration required to achieve either 50% or 75% activation of the myofibrils.
A dilution series of compound was created in DMSO such that the final desired concentration of compound would be achieved in a volume of 100 μL with a fixed DMSO concentration of 2% (v/v). Typically 2 μL of the dilution series were added to 96 well plate to achieve an 8 or 12 point dose response. Following the addition of 50 μL of a solution containing bovine cardiac myofibrils, PK/LDH and a solution of calcium (that achieved the desired activation), the enzymatic reaction was started with the addition of 50 μL of a solution containing ATP, PEP and NADH. The reaction progress was followed in a Molecular Devices M5e plate reader at ambient temperature using clear half area plates. The plate reader was configured to read absorbance at 340 nm in kinetics mode for 15 minutes. Data were recorded as the slope of the absorbance response to time. The slopes of the absorbance response as a function of time were normalized to slopes on the plate containing DMSO. This normalized rate was then plotted as a function of small molecule concentration and the data was fitted to a four-parameter fit using GraphPad Prism. The midpoint of this plot is the 1050 and is the concentration at which fifty percent of the total response is inhibited.
In the case of `CC(C)n1c(=O)cc(N[C@@H](C)c2ccc(OCc3ccccc3)cc2)[nH]c1=O` [Compound 62, (S)-6-((1-(4-(benzyloxy)phenyl)ethyl)amino)-3-isopropylpyrimidine-2,4(1H,3H)-dione], the IC50 was < 1 µM. Same read-out and setting: as for `CC(C)n1c(=O)cc(N[C@@H](C)c2ccc(O)cc2)[nH]c1=O` [Compound 63, (S)-6-((1-(4-hydroxyphenyl)ethyl)amino)-3-isopropylpyrimidine-2,4(1H,3H)-dione], the figure is < 1 µM; as for `CC(C)n1c(=O)cc(N[C@@H](COCc2ccccc2)c2ccccc2)[nH]c1=O` [Compound 64, (R)-6-((2-(benzyloxy)-1-phenylethyl)amino)-3-isopropylpyrimidine-2,4(1H,3H)-dione], 1 to 15 µM; as for `Cc1cccc(-n2c(=O)cc(N[C@@H](C)c3ccccc3)[nH]c2=O)n1` [Compound 65, (S)-3-(6-methylpyridin-2-yl)-6-((1-phenylethyl)amino)pyrimidine-2,4(1H,3H)-dione], 1 to 15 µM. As to `C[C@H](Nc1cc(=O)n(CC(F)F)c(=O)[nH]1)c1ccccc1` [Compound 66, (S)-3-(2,2-difluoroethyl)-6-((1-phenylethyl)amino)pyrimidine-2,4(1H,3H)-dione], the IC50 was in the range of 1 to 15 µM.

Regarding `Cc1ccccc1[C@H](C)Nc1cc(=O)n(C(C)C)c(=O)[nH]1` [Compound 68, (S)-3-isopropyl-6-((1-(o-tolyl)ethyl)amino)pyrimidine-2,4(1H,3H)-dione], the IC50 was < 1 µM. Still for that read-out and setting: as for `C[C@H](Nc1cc(=O)n(C2CCC(F)(F)CC2)c(=O)[nH]1)c1ccccc1` [Compound 82], the figure is < 1 µM. Still for that read-out and setting: the figure for `C[C@H](Nc1cc(=O)n([C@@H](C)CO)c(=O)[nH]1)c1ccccc1` [Compound 92] is 1 to 15 µM; for `CC(C)n1c(=O)cc(N[C@@H](CO)c2ccccc2)[nH]c1=O` [Compound 93] it is 1 to 15 µM. Consider `C[C@H](Nc1cc(=O)n([C@@H](C)C(F)(F)F)c(=O)[nH]1)c1ccccc1` [Compound 95], for which the IC50 is < 1 µM. On to `C[C@H](Nc1cc(=O)n(C(C)(C)C)c(=O)[nH]1)c1ccccc1` [Compound 101], for which the IC50 fell in the range of 1 to 15 µM. On to `COCCn1c(=O)cc(N[C@@H](C)c2ccccc2)[nH]c1=O` [Compound 102], for which the IC50 lay in the range of 1 to 15 µM.

Consider `CC[C@H](Nc1cc(=O)n([C@@H](C)C(F)(F)F)c(=O)[nH]1)c1ccccc1` [Compound 103], for which the IC50 is < 1 µM. For the molecule `C[C@H](Nc1cc(=O)n([C@H](C)C2CC2)c(=O)[nH]1)c1ccccc1` [Compound 104], the IC50 is < 1 µM. With `C[C@H](Nc1cc(=O)n([C@@H](C)C2CC2)c(=O)[nH]1)c1ccccc1` [Compound 105], the IC50 is < 1 µM. With `CCn1c(=O)cc(N[C@H](c2ccccc2)C2CCC2)[nH]c1=O` [Compound 106], the IC50 was < 1 µM.

On to `CC(C)n1c(=O)cc(N[C@@H](C)c2ccc3c(c2)OCO3)[nH]c1=O` [Compound 107], for which the IC50 is < 1 µM. For `CCn1c(=O)cc(N[C@@H](C)c2ccc3c(c2)OCO3)[nH]c1=O` [Compound 108], the IC50 was < 1 µM. Take `CC[C@H](Nc1cc(=O)n(CC(F)(F)F)c(=O)[nH]1)c1ccccc1` [Compound 109]: the IC50 fell in the range of 1 to 15 µM. Still for that read-out and setting: the figure for `C[C@H](Nc1cc(=O)n(CC2CC2)c(=O)[nH]1)c1ccccc1` [Compound 110] is 1 to 15 µM; for `O=c1cc(N[C@H](c2ccccc2)C2CC2)[nH]c(=O)n1CC(F)(F)F` [Compound 111] it is 1 to 15 µM. As for `O=c1cc(N[C@H](c2ccccc2)C2CCC2)[nH]c(=O)n1CC(F)(F)F` [Compound 112], the IC50 is < 1 µM. On the same count and under the same terms, the figure for `C[C@H](Nc1cc(=O)n(C(CO)CO)c(=O)[nH]1)c1ccccc1` [Compound 113] is 1 to 15 µM; for `C[C@H](n1c(=O)cc(N[C@@H](C)Cc2ccc(F)cc2)[nH]c1=O)C(F)(F)F` [Compound 114] it is < 1 µM.

Regarding `CC(C)n1c(=O)cc(N[C@@H](C)c2ccccc2O)[nH]c1=O` [Compound 116], the IC50 is < 1 µM. Take `C[C@H](Nc1cc(=O)n(C2(C(F)(F)F)CC2)c(=O)[nH]1)c1ccccc1` [Compound 117]: the IC50 is < 1 µM. Turning to `C[C@@H](Cc1ccc(F)cc1)Nc1cc(=O)n(-c2cc(F)cc(F)c2)c(=O)[nH]1` [Compound 118], the IC50 was < 1 µM.

As to `CC(C)n1c(=O)cc(N[C@@H](C)c2ccc3c(c2)OC(F)(F)O3)[nH]c1=O` [Compound 119], the IC50 was < 1 µM.

Take `CC(C)n1c(=O)cc(N[C@@H](C)c2ccccc2Cl)[nH]c1=O` [Compound 120]: the IC50 is < 1 µM. On to `COc1ccc([C@H](C)Nc2cc(=O)n(C(C)C)c(=O)[nH]2)cc1` [Compound 121], for which the IC50 is < 1 µM. Regarding `CCn1c(=O)cc(N[C@H](c2ccccc2)C2CC2)[nH]c1=O` [Compound 122], the IC50 was 1 to 15 µM. As for `CCn1c(=O)cc(N[C@@H](C)c2cccc(Cl)c2)[nH]c1=O` [Compound 123], the IC50 was < 1 µM.

Regarding `CCn1c(=O)cc(N[C@@H](C)c2cccc(C(F)(F)F)c2)[nH]c1=O` [Compound 124], the IC50 was < 1 µM. On to `C[C@H](Nc1cc(=O)n(CC2CC2)c(=O)[nH]1)c1cccc(F)c1` [Compound 125], for which the IC50 is < 1 µM.

Take `C[C@H](Nc1cc(=O)n(CC2CC2)c(=O)[nH]1)c1cccc(C(F)(F)F)c1` [Compound 126]: the IC50 is 1 to 15 µM.

As to `C[C@H](Nc1cc(=O)n(CC2CC2)c(=O)[nH]1)c1cccc(Cl)c1` [Compound 127], the IC50 is < 1 µM. The same measure, in the same setting: as for `CC(C)n1c(=O)[nH]c(N[C@@H](C)c2ccc3c(c2)OC(F)(F)O3)c(Cl)c1=O` [Compound 128], the figure is 1 to 15 µM; as for `CCCn1c(=O)cc(N[C@@H](C)c2cccc(F)c2)[nH]c1=O` [Compound 129], 1 to 15 µM. In the case of `CCCn1c(=O)cc(N[C@@H](C)c2cccc(Cl)c2)[nH]c1=O` [Compound 130], the IC50 was < 1 µM.

Take `CCCn1c(=O)cc(N[C@@H](C)c2cccc(C(F)(F)F)c2)[nH]c1=O` [Compound 131]: the IC50 was < 1 µM. As to `C[C@H](Nc1cc(=O)n(C2CCC2)c(=O)[nH]1)c1ccc(F)cc1` [Compound 132], the IC50 is < 1 µM. For the molecule `CCn1c(=O)cc(N[C@@H](C)c2ccc(F)c(F)c2)[nH]c1=O` [Compound 134], the IC50 is < 1 µM.

For `CC[C@H](C)n1c(=O)cc(N[C@@H](C)c2ccc(F)cc2)[nH]c1=O` [Compound 135], the IC50 is < 1 µM. On the same count and under the same terms, the figure for `CCCn1c(=O)cc(N[C@@H](C)c2ccc(F)cc2)[nH]c1=O` [Compound 136] is < 1 µM; for `C[C@H](Nc1cc(=O)n(-c2cccc(F)n2)c(=O)[nH]1)c1ccccc1` [Compound 137] it is < 1 µM.

The same assay, now with this note: bovine cardiac myofibrils, calcium giving 75% activation (pCa75); read-out: Biochemical Activity (pCa75).
On to `CC(C)n1c(=O)cc(N[C@@H](C)Cc2ccncc2)[nH]c1=O` [Compound 61, (S)-3-isopropyl-6-((1-(pyridin-4-yl)propan-2-yl)amino)pyrimidine-2,4(1H,3H)-dione], for which the IC50 is 1 to 15 µM. Consider `CC(C)n1c(=O)cc(N[C@@H](C)c2cccc(-n3ccnc3)c2)[nH]c1=O` [Compound 72], for which the IC50 is 1 to 15 µM. As to `C[C@H](Nc1cc(=O)n(-c2ccnnc2)c(=O)[nH]1)c1ccccc1` [Compound 73], the IC50 fell in the range of 1 to 15 µM. As for `C[C@H](Nc1cc(=O)n(-c2cncnc2)c(=O)[nH]1)c1ccccc1` [Compound 74], the IC50 lay in the range of 1 to 15 µM. Still for that read-out and setting: as for `C[C@H](Nc1cc(=O)n(-c2cnccn2)c(=O)[nH]1)c1ccccc1` [Compound 75], the figure is 1 to 15 µM; as for `CC(C)n1c(=O)cc(N[C@@H](C)c2cccnc2)[nH]c1=O` [Compound 76], 1 to 15 µM. The same measure, in the same setting: as for `C[C@H](Nc1cc(=O)n(-c2cnn(C)c2)c(=O)[nH]1)c1ccccc1` [Compound 77], the figure is 1 to 15 µM; as for `CCC[C@H](Nc1cc(=O)n(C(C)C)c(=O)[nH]1)c1ccccc1` [Compound 78], < 1 µM; as for `C[C@H](Nc1cc(=O)n([C@@H]2CCCOC2)c(=O)[nH]1)c1ccccc1` [Compound 79], 1 to 15 µM.

In the case of `C[C@H](Nc1cc(=O)n(C2CCCC2)c(=O)[nH]1)c1ccccc1` [Compound 80], the IC50 is < 1 µM.

As to `CC(C)[C@H](Nc1cc(=O)n(C(C)C)c(=O)[nH]1)c1ccccc1` [Compound 81], the IC50 lay within 1 to 15 µM.

Turning to `C[C@H](Nc1cc(=O)n(C2CCC(F)(F)CC2)c(=O)[nH]1)c1ccccc1` [Compound 82], the IC50 was < 1 µM.

With `CCC(CC)n1c(=O)cc(N[C@@H](C)c2ccccc2)[nH]c1=O` [Compound 83], the IC50 is < 1 µM. With `C[C@H](Nc1cc(=O)n(C2CCN(C(=O)c3ccccc3)CC2)c(=O)[nH]1)c1ccccc1` [Compound 84], the IC50 was < 1 µM. `CC(C)n1c(=O)cc(N[C@@H](C)CCc2ccccc2)[nH]c1=O` [Compound 85]: the IC50 was < 1 µM. For `COC(=O)Cn1c(=O)cc(N[C@@H](C)c2ccccc2)[nH]c1=O` [Compound 86], the IC50 lay within 1 to 15 µM. On the same count and under the same terms, the figure for `CC(C)n1c(=O)cc(N[C@@H](C)Cc2ccccc2)[nH]c1=O` [Compound 90] is 1 to 15 µM; for `C[C@H](Nc1cc(=O)n([C@@H](C)COCc2ccccc2)c(=O)[nH]1)c1ccccc1` [Compound 91] it is 1 to 15 µM; for `C[C@H](Nc1cc(=O)n([C@@H](C)CO)c(=O)[nH]1)c1ccccc1` [Compound 92] it is 1 to 15 µM.

With `CC(C)n1c(=O)cc(N[C@@H](CO)c2ccccc2)[nH]c1=O` [Compound 93], the IC50 is < 1 µM.

In the case of `C[C@H](Nc1cc(=O)n([C@H](C)C(F)(F)F)c(=O)[nH]1)c1ccccc1` [Compound 94], the IC50 is < 1 µM. Regarding `C[C@H](Nc1cc(=O)n([C@@H](C)C(F)(F)F)c(=O)[nH]1)c1ccccc1` [Compound 95], the IC50 was < 1 µM. Take `CC(CC(F)(F)F)n1c(=O)cc(N[C@@H](C)c2ccccc2)[nH]c1=O` (stereo partly drawn) [Compound 99]: the IC50 was < 1 µM.

For `C[C@H](Nc1cc(=O)n(CC(F)(F)F)c(=O)[nH]1)c1ccccc1` [Compound 100], the IC50 was in the range of 1 to 15 µM.
